In ChEMBL document CHEMBL4002569, “Improved anticancer and antiparasitic activity of new lawsone Mannich bases” (Eur J Med Chem, 2017):
Each block holds one compound with its values, some of them ahead of it. The source made the active and inactive calls. The rule behind the calls is not given here.

Columns and labels:
HeLa [1] = assay: Cytotoxicity against human HeLa cells assessed as effect on cell viability at 10 uM after 1 to 9 hrs by DAPI staining-based fluorescence microscopic method
[2] = tested on: Trypanosoma brucei brucei; assay: Antitrypanosomal activity against bloodstream trypomastigote form of Trypanosoma brucei brucei 65.3 assessed as deformation of microtubule cytoskeleton at 1 uM after 0.5 to 24 hrs by DAPI staining-based fluorescence microscopic method; format: functional
KB-V1 = assay: Antiproliferative activity against vinblastine-resistant human KBV1 cells after 72 hrs by MTT assay; format: functional, cell-based; conditions: KB-V1, 72 h
PANC-1 = assay: Antiproliferative activity against human PANC1 cells after 72 hrs by MTT assay; format: functional, cell-based; conditions: PANC-1, 72 h
PC-3 [3] = assay: Antiproliferative activity against human PC3 cells at 1 to 50 uM after 96 hrs by MTT assay; format: functional, cell-based
[4] = tested on: Trypanosoma brucei brucei; assay: Antitrypanosomal activity against bloodstream trypomastigote form of Trypanosoma brucei brucei 65.3 assessed as decrease in parasite motility at 1 uM after 0.5 to 24 hrs by DAPI staining-based fluorescence microscopic method relative to control; format: functional
[5] = tested on: Trypanosoma brucei brucei; assay: Antitrypanosomal activity against bloodstream trypomastigote form of Trypanosoma brucei brucei 65.3 […] after 72 hrs by Alamar Blue assay; format: functional, cell-based; conditions: Trypanosoma brucei, 65.3, 72 h
518A2 [6] = assay: Induction of reactive oxygen species generation in human 518A2 cells at 0.5 uM after 24 hrs by NBT assay relative to control; format: functional
HeLa [7] = assay: Cytotoxicity against human HeLa cells assessed as effect on cytoskeleton at 10 uM after 1 to 9 hrs by DAPI staining-based fluorescence microscopic method; format: cell-based
MDA-MB-231 [8] = assay: Antiproliferative activity against human MDA-MB-231 cells at 1 to 50 uM after 96 hrs by MTT assay; format: functional, cell-based
BXPC-3 [9] = assay: Antiproliferative activity against human BxPC3 cells at 1 to 50 uM after 96 hrs by MTT assay; format: functional, cell-based
518A2 [10] = assay: Antiproliferative activity against human 518A2 cells after 72 hrs by MTT assay; format: functional, cell-based; conditions: 518A2, 72 h
[11] = tested on: Trypanosoma brucei brucei; assay: Antitrypanosomal activity against bloodstream trypomastigote form of Trypanosoma brucei brucei 65.3 assessed as cell debris of dead and lysed parasite at 10 uM after 12 to 24 hrs by DAPI staining-based fluorescence microscopic method; format: functional
518A2 [12] = assay: Induction of reactive oxygen species generation in human 518A2 cells at 0.1 uM after 24 hrs by NBT assay relative to control; format: functional
HCT-116 = assay: Antiproliferative activity against human HCT116 cells after 72 hrs by MTT assay; format: functional, cell-based; conditions: HCT-116, 72 h
BXPC-3 [13] = assay: Antiproliferative activity against human BxPC3 cells at <25 uM after 96 hrs by MTT assay; format: functional, cell-based
MDA-MB-231 [14] = assay: Antiproliferative activity against human MDA-MB-231 cells at <25 uM after 96 hrs by MTT assay; format: functional, cell-based
PC-3 [15] = assay: Antiproliferative activity against human PC3 cells at <25 uM after 96 hrs by MTT assay; format: functional, cell-based
Entamoeba histolytica [16] = assay: Antiamoebic activity against Entamoeba histolytica assessed as growth inhibition at 50 ug/ml after 48 hrs by trypan blue dye-based hemocytometer relative to control; format: functional; conditions: read-out: GI
Entamoeba histolytica [17] = assay: Antiamoebic activity against Entamoeba histolytica assessed as growth inhibition at 100 ug/ml after 48 hrs by trypan blue dye-based hemocytometer relative to control; format: functional; conditions: read-out: GI
Entamoeba histolytica [18] = assay: Antiamoebic activity against Entamoeba histolytica assessed as growth inhibition at 25 ug/ml after 24 hrs by trypan blue dye-based hemocytometer relative to control; format: functional; conditions: read-out: GI
Entamoeba histolytica [19] = assay: Antiamoebic activity against Entamoeba histolytica assessed as growth inhibition at 100 ug/ml after 72 hrs by trypan blue dye-based hemocytometer relative to control; format: functional; conditions: read-out: GI
Entamoeba histolytica [20] = assay: Antiamoebic activity against Entamoeba histolytica assessed as growth inhibition at 25 ug/ml after 72 hrs by trypan blue dye-based hemocytometer relative to control; format: functional; conditions: read-out: GI
[21] = Selectivity index, ratio of IC50 for human MCF10A cells to IC50 for human 518A2 cells; format: functional
Entamoeba histolytica [22] = assay: Antiamoebic activity against Entamoeba histolytica assessed as growth inhibition at 50 ug/ml after 72 hrs by trypan blue dye-based hemocytometer relative to control; format: functional; conditions: read-out: GI
Entamoeba histolytica [23] = assay: Antiamoebic activity against Entamoeba histolytica assessed as growth inhibition at 50 ug/ml after 24 hrs by trypan blue dye-based hemocytometer relative to control; format: functional; conditions: read-out: GI
[24] = Selectivity index, ratio of IC50 for human MCF10A cells to IC50 for human PC3 cells; format: functional
[25] = Selectivity index, ratio of IC50 for human MCF10A cells to IC50 for human PANC1 cells; format: functional
PC-3 [26] = assay: Antiproliferative activity against human PC3 cells after 96 hrs by MTT assay; format: functional, cell-based; conditions: PC-3, 96 h
Entamoeba histolytica [27] = assay: Antiamoebic activity against Entamoeba histolytica assessed as growth inhibition at 25 ug/ml after 48 hrs by trypan blue dye-based hemocytometer relative to control; format: functional; conditions: read-out: GI
MCF-10A = assay: Antiproliferative activity against human MCF10A cells at 50 uM after 96 hrs by MTT assay; format: cell-based
[28] = tested on: Trypanosoma brucei brucei; assay: Antitrypanosomal activity against bloodstream trypomastigote form of Trypanosoma brucei brucei 65.3 assessed as deformation of microtubule cytoskeleton at 1 to 10 uM after 3 to 6 hrs by DAPI staining-based fluorescence microscopic method; format: functional
Entamoeba histolytica [29] = assay: Antiamoebic activity against Entamoeba histolytica assessed as growth inhibition at 100 ug/ml after 24 hrs by trypan blue dye-based hemocytometer relative to control; format: functional; conditions: read-out: GI
[30] = Selectivity index, ratio of IC50 for human MCF10A cells to IC50 for human BxPC3 cells; format: functional
[31] = Selectivity index, ratio of IC50 for human MCF10A cells to IC50 for human HCT116 cells; format: functional
[32] = tested on: Trypanosoma brucei brucei; assay: Antitrypanosomal activity against bloodstream trypomastigote form of Trypanosoma brucei brucei 65.3 assessed as decrease in parasite viability at 1 to 10 uM after 1 hr by DAPI staining-based fluorescence microscopic method; format: functional
MDA-MB-231 [33] = assay: Antiproliferative activity against human MDA-MB-231 cells after 96 hrs by MTT assay; format: functional, cell-based; conditions: MDA-MB-231, 96 h
[34] = Selectivity index, ratio of IC50 for human MCF10A cells to IC50 for human MDA-MB-231 cells; format: functional
[35] = Selectivity index, ratio of IC50 for human MCF10A cells to IC50 for vinblastine-resistant human KBV1 cells; format: functional
BXPC-3 [36] = assay: Antiproliferative activity against human BxPC3 cells after 96 hrs by MTT assay; format: functional, cell-based; conditions: BXPC-3, 96 h
Entamoeba histolytica [37] = assay: Antiamoebic activity against Entamoeba histolytica assessed as growth inhibition at 200 ug/ml after 72 hrs by trypan blue dye-based hemocytometer relative to control; format: functional; conditions: read-out: GI
Entamoeba histolytica [38] = assay: Antiamoebic activity against Entamoeba histolytica assessed as growth inhibition at 200 ug/ml after 24 hrs by trypan blue dye-based hemocytometer relative to control; format: functional; conditions: read-out: GI
Entamoeba histolytica [39] = assay: Antiamoebic activity against Entamoeba histolytica assessed as growth inhibition at 200 ug/ml after 48 hrs by trypan blue dye-based hemocytometer relative to control; format: functional; conditions: read-out: GI
PC-3 [40] = assay: Antiproliferative activity against human PC3 cells at >10 to 25 uM after 96 hrs by MTT assay; format: functional, cell-based
MDA-MB-231 [41] = assay: Antiproliferative activity against human MDA-MB-231 cells at >10 to 25 uM after 96 hrs by MTT assay; format: functional, cell-based
BXPC-3 [42] = assay: Antiproliferative activity against human BxPC3 cells at >10 to 25 uM after 96 hrs by MTT assay; format: functional, cell-based
BXPC-3 [43] = assay: Antiproliferative activity against human BxPC3 cells at <10 uM after 96 hrs by MTT assay; format: functional, cell-based
PC-3 [44] = assay: Antiproliferative activity against human PC3 cells at <10 uM after 96 hrs by MTT assay; format: functional, cell-based
MDA-MB-231 [45] = assay: Antiproliferative activity against human MDA-MB-231 cells at <10 uM after 96 hrs by MTT assay; format: functional, cell-based

IC50 (KB-V1): 430 nM
IC50 (PANC-1): 3930 nM
IC50 [5]: 350 nM
IC50 (HCT-116): 2410 nM
Compound: CCCCCCCCCCCCCCNC(C1=C(O)C(=O)c2ccccc2C1=O)c1ccccn1 (configuration not stated)
Activity (HeLa [1]): Non-Toxic
Activity [2]: Active
growth inhibition (GI) (PC-3 [3]): Active
Activity [4]: Active
Activity (518A2 [6]): 70%
Activity (HeLa [7]): Non-Toxic
growth inhibition (GI) (MDA-MB-231 [8]): Active
growth inhibition (GI) (BXPC-3 [9]): Active
IC50 (518A2 [10]): 3030 nM
Activity [11]: Active
Activity (518A2 [12]): 50%

IC50 (KB-V1): 16800 nM
IC50 (PANC-1): 7940 nM
IC50 (HCT-116): 11400 nM
Compound: CCCCCCCCCCCCCCCCNC(C1=C(O)C(=O)c2ccccc2C1=O)c1ccc(O)c(OC)c1 (configuration not stated)
growth inhibition (GI) (PC-3 [3]): Active
growth inhibition (GI) (MDA-MB-231 [8]): Active
growth inhibition (GI) (BXPC-3 [9]): Active
IC50 (518A2 [10]): 12200 nM

IC50 (KB-V1): 830 nM
IC50 (PC-3 [26]): 670 nM
IC50 (PANC-1): 2190 nM
IC50 [5]: 303 nM
IC50 (MDA-MB-231 [33]): 1100 nM
IC50 (BXPC-3 [36]): 820 nM
IC50 (HCT-116): 2080 nM
Compound: CCCCCCCCCCCCCCCCNC(C1=C(O)C(=O)c2ccccc2C1=O)c1ccccn1 (configuration not stated)
inhibition of growth at 50 µg/mL (Entamoeba histolytica [16]): 82.1%
inhibition of growth at 100 µg/mL (Entamoeba histolytica [17]): 80.9%
Activity (HeLa [1]): Non-Toxic
inhibition of growth at 25 µg/mL (Entamoeba histolytica [18]): 60%
inhibition of growth at 100 µg/mL (Entamoeba histolytica [19]): 82.8%
inhibition of growth at 25 µg/mL (Entamoeba histolytica [20]): 70.6%
Ratio IC50 [21]: >35
inhibition of growth at 50 µg/mL (Entamoeba histolytica [22]): 85.3%
inhibition of growth at 50 µg/mL (Entamoeba histolytica [23]): 66.6%
Ratio IC50 [24]: >75
Ratio IC50 [25]: >22
inhibition of growth at 25 µg/mL (Entamoeba histolytica [27]): 66%
growth inhibition (GI) (MCF-10A): Non-Toxic
Activity [28]: Active
inhibition of growth at 100 µg/mL (Entamoeba histolytica [29]): 77.8%
Activity (518A2 [6]): Active
Ratio IC50 [30]: >61
Activity (HeLa [7]): Non-Toxic
Ratio IC50 [31]: >24
Activity [32]: inactive
IC50 (518A2 [10]): 1410 nM
Ratio IC50 [34]: >46
Activity (518A2 [12]): 50%
Ratio IC50 [35]: >60

IC50 (KB-V1): 320 nM
IC50 (PANC-1): 1790 nM
IC50 [5]: 646 nM
IC50 (HCT-116): 3460 nM
Compound: CCCCCCCCCCCCNC(C1=C(O)C(=O)c2ccccc2C1=O)c1ccccn1 (configuration not stated)
Activity (HeLa [1]): Non-Toxic
Activity [2]: Active
growth inhibition (GI) (PC-3 [3]): Active
Activity [4]: Active
Activity (518A2 [6]): 70%
Activity (HeLa [7]): Non-Toxic
growth inhibition (GI) (MDA-MB-231 [8]): Active
growth inhibition (GI) (BXPC-3 [9]): Active
IC50 (518A2 [10]): 2570 nM
Activity (518A2 [12]): 50%

Further lines, the compound ahead of its results:

Compound: COc1cc(C(NCc2ccccn2)C2=C(O)C(=O)c3ccccc3C2=O)ccc1O (configuration not stated)
growth inhibition (GI) (BXPC-3 [13]): inactive
growth inhibition (GI) (MDA-MB-231 [14]): inactive
growth inhibition (GI) (PC-3 [15]): inactive

Compound: Cc1ncc([N+](=O)[O-])n1CCO [METRONIDAZOLE]
inhibition of growth at 200 µg/mL (Entamoeba histolytica [37]): 60.4%
inhibition of growth at 200 µg/mL (Entamoeba histolytica [38]): 54.1%
inhibition of growth at 200 µg/mL (Entamoeba histolytica [39]): 58.7%

Compound: CCCCCCCNC(C1=C(O)C(=O)c2ccccc2C1=O)c1ccc(O)c(OC)c1 (configuration not stated)
growth inhibition (GI) (BXPC-3 [13]): inactive
growth inhibition (GI) (MDA-MB-231 [14]): inactive
growth inhibition (GI) (PC-3 [15]): inactive

Compound: CCCCCCCCCCCCCCCCNC(C1=C(O)C(=O)c2ccccc2C1=O)c1ccc(F)c(F)c1 (configuration not stated)
growth inhibition (GI) (PC-3 [40]): Active
growth inhibition (GI) (MDA-MB-231 [41]): Active
growth inhibition (GI) (BXPC-3 [42]): Active
growth inhibition (GI) (BXPC-3 [43]): inactive
growth inhibition (GI) (PC-3 [44]): inactive
growth inhibition (GI) (MDA-MB-231 [45]): inactive
